target: T1, KDM5A (Homo sapiens, UniProt P29375); assay: KDM5 enzyme assay, KDM5A HTRF (Example 463); type: biochemical; conditions: not given
T1 construct: Full length KDM5A enzyme was expressed and purified inhouse; made in house
T1 sequence (P29375 whole entry): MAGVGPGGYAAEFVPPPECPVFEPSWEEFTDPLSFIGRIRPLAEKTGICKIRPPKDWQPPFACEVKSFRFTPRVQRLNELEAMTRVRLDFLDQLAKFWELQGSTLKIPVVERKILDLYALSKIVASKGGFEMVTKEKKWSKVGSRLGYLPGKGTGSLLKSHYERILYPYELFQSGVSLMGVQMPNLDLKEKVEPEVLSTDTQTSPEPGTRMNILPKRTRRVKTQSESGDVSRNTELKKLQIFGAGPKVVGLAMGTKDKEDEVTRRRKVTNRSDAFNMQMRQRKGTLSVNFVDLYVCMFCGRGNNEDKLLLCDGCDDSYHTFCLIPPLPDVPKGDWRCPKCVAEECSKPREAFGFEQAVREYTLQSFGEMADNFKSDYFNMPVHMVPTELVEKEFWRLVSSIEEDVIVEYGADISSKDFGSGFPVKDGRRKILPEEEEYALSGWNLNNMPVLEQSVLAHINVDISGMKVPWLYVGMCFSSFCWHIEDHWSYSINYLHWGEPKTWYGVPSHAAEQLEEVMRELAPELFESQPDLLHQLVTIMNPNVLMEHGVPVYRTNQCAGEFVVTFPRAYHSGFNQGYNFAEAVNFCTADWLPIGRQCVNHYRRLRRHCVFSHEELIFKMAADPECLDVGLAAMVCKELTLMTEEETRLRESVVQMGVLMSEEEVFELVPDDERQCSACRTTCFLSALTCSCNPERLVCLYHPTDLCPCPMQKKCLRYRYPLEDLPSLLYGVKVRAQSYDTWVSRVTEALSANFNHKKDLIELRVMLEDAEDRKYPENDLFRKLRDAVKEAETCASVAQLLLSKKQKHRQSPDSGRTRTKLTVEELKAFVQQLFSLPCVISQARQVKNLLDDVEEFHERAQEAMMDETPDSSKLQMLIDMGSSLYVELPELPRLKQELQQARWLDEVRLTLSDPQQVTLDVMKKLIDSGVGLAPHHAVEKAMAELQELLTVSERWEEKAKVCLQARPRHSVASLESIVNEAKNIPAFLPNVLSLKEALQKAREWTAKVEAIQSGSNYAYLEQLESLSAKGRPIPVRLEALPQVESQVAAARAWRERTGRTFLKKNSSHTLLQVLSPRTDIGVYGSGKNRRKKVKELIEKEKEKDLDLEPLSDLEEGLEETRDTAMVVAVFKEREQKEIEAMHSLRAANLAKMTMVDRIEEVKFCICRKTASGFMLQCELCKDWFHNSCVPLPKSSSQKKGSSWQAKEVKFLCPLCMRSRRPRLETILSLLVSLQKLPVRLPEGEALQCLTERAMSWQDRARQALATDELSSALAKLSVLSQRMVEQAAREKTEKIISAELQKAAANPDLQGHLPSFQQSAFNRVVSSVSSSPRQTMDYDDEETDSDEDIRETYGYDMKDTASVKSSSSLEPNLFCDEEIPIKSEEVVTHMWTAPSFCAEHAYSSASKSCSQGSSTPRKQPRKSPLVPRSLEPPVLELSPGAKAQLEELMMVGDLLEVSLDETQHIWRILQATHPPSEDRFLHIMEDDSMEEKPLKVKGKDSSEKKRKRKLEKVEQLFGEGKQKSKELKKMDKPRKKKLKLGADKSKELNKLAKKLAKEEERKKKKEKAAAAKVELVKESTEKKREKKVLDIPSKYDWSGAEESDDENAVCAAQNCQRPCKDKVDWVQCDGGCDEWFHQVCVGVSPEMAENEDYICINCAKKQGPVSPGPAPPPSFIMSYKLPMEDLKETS

Row | SMILES | IC50 [nM]
1 | CC(C)c1c[nH]c2c(C#N)cnn2c1=O [Example 197] | 29

same assay, conditions: compounds of Examples 1-432; read-out: Example 463 Assay KDM5A HTRF IC50

Row | SMILES | IC50 [nM]
2 | CC(C)c1c(-c2cnn(C(c3ccccc3)c3ccccc3)c2)[nH]c2c(C#N)cnn2c1=O [Example 125] | 30
3 | C=Cc1c(-c2ccccc2)[nH]c2c(C#N)cnn2c1=O [Example 129] | 23
4 | CC(C)c1c(-c2cc3ccccc3o2)[nH]c2c(C#N)cnn2c1=O [Example 130] | 4.5
5 | CC(C)c1c(/C=C/c2ccccc2)[nH]c2c(C#N)cnn2c1=O [Example 131] | 18
6 | CC(C)c1c(-c2cccc(Oc3ccccc3)c2)[nH]c2c(C#N)cnn2c1=O [Example 136] | 9
7 | CC(C)c1c(C#Cc2ccccc2)[nH]c2c(C#N)cnn2c1=O [Example 137] | 12
8 | CCc1c(-c2ccoc2)n(C)c2c(C#N)cnn2c1=O [Example 162] | 64
9 | CC(C)c1c(-c2cccc(F)c2)n(C)c2c(C#N)cnn2c1=O [Example 163] | 97
10 | CC(C)c1c(-c2cccc(C(F)(F)F)c2)n(C)c2c(C#N)cnn2c1=O [Example 164] | 150
11 | COc1cccc(-c2c(C(C)C)c(=O)n3ncc(C#N)c3n2C)c1 [Example 165] | 61
12 | CC(C)c1c(-c2cccc(C#N)c2)n(C)c2c(C#N)cnn2c1=O [Example 166] | 200
13 | CC(C)c1c(-c2cnn(C)c2)n(C)c2c(C#N)cnn2c1=O [Example 167] | 100
14 | CC(C)c1c(-c2cccs2)n(C)c2c(C#N)cnn2c1=O [Example 168] | 46
15 | CC(C)c1c(-c2ccsc2)n(C)c2c(C#N)cnn2c1=O [Example 169] | 47
16 | CC(C)c1c(C2=CCOC2)n(C)c2c(C#N)cnn2c1=O [Example 170] | 210
17 | CC(C)c1c(-c2ccn[nH]2)n(C)c2c(C#N)cnn2c1=O [Example 171] | 37
18 | CC(C)c1c(-c2ccc(C(F)(F)F)cc2)n(C)c2c(C#N)cnn2c1=O [Example 172] | 140
19 | COc1ccc(-c2c(C(C)C)c(=O)n3ncc(C#N)c3n2C)cc1 [Example 173] | 39
20 | CC(C)c1c(-c2ccccc2F)n(C)c2c(C#N)cnn2c1=O [Example 174] | 81
21 | CC(C)c1c(-c2cccc(-c3ccccc3)c2)n(C)c2c(C#N)cnn2c1=O [Example 175] | 43
22 | CCc1c(-c2cccc(-c3ccccc3)c2)n(C)c2c(C#N)cnn2c1=O [Example 176] | 52
23 | CCc1c(-c2ccco2)n(C)c2c(C#N)cnn2c1=O [Example 177] | 38
24 | CC(C)c1c(-c2ccco2)n(C)c2c(C#N)cnn2c1=O [Example 178] | 43
25 | C=Cc1c(C(C)C)c(=O)n2ncc(C#N)c2n1C [Example 179] | 35
26 | C=C(C)c1c(C(C)C)c(=O)n2ncc(C#N)c2n1C [Example 180] | 61

Row | SMILES | IC50 [nM]
27 | CC(C)c1c(-c2cnn(Cc3ccccc3)c2)n(C)c2c(C#N)cnn2c1=O [Example 181] | 60
28 | CCc1c(-c2cnn(Cc3ccccc3)c2)n(C)c2c(C#N)cnn2c1=O [Example 182] | 130
29 | CC(C)c1c(-c2ccc(F)cc2)n(C)c2c(C#N)cnn2c1=O [Example 183] | 33
30 | CC(C)c1c(-c2ccc(C#N)cc2)n(C)c2c(C#N)cnn2c1=O [Example 184] | 56
31 | CC(C)c1c(-c2ccc(-c3ccccc3)o2)n(C)c2c(C#N)cnn2c1=O [Example 185] | 20
32 | CC(C)c1c(-c2cn[nH]c2)n(C)c2c(C#N)cnn2c1=O [Example 186] | 49
33 | CC(C)c1c(-c2cc(-c3ccccc3)co2)n(C)c2c(C#N)cnn2c1=O [Example 187] | 750
34 | CC(C)c1c(-c2ccc(=O)n(C)c2)n(C)c2c(C#N)cnn2c1=O [Example 188] | 240
35 | CC(C)c1c(-c2cc(C3CC3)co2)n(C)c2c(C#N)cnn2c1=O [Example 190] | 57
36 | CCc1c(C)n(CC)c2c(C#N)cnn2c1=O [Example 191] | 760
37 | CCCn1c(C)c(CC)c(=O)n2ncc(C#N)c12 [Example 192] | 1500
38 | CCc1c(C)n(CC2CC2)c2c(C#N)cnn2c1=O [Example 193] | 860
39 | CCc1c(C)n(CCOC)c2c(C#N)cnn2c1=O [Example 194] | 2300
40 | CCc1c(C)n(CCO)c2c(C#N)cnn2c1=O [Example 195] | 2200
41 | Cc1c(C(C)C)c(=O)n2ncc(C#N)c2n1C [Example 196] | 47
42 | CC(C)c1cn(C)c2c(C#N)cnn2c1=O [Example 198] | 610
43 | CCOC(=O)c1c(CC)c(=O)n2ncc(C#N)c2n1C [Example 199] | 180
44 | CCc1c(C(=O)O)n(C)c2c(C#N)cnn2c1=O [Example 200] | 900
45 | CCc1c(C(N)=O)[nH]c2c(C#N)cnn2c1=O [Example 201] | 29
46 | CCc1c(-c2cc[nH]c2)[nH]c2c(C#N)cnn2c1=O [Example 202] | 6
47 | CC(C)c1c(-c2ccc3c(c2)OC(F)(F)O3)[nH]c2c(C#N)cnn2c1=O [Example 204] | 19
48 | CC(C)c1c(-c2ccc(S(C)(=O)=O)c(F)c2)[nH]c2c(C#N)cnn2c1=O [Example 206] | 21
49 | CC(C)c1c(-c2ccc(OC(F)(F)F)c(Cl)c2)[nH]c2c(C#N)cnn2c1=O [Example 207] | 33
50 | CC(C)c1c(-c2cc3ccccc3[nH]2)[nH]c2c(C#N)cnn2c1=O [Example 212] | 8

Continued, values first:

Row | IC50 [nM] | SMILES
51 | 15 | Cc1ccc(-c2[nH]c3c(C#N)cnn3c(=O)c2C(C)C)cc1C [Example 118]
52 | 19 | CCOc1ccc(-c2[nH]c3c(C#N)cnn3c(=O)c2C(C)C)cc1Cl [Example 119]
53 | 19 | COc1ccc(-c2[nH]c3c(C#N)cnn3c(=O)c2C(C)C)cc1C [Example 120]
54 | 10 | Cc1nc2cc(-c3[nH]c4c(C#N)cnn4c(=O)c3C(C)C)ccc2s1 [Example 121]
55 | 13 | CC(C)c1c(-c2cnn(Cc3ccccc3Oc3ccccc3)c2)[nH]c2c(C#N)cnn2c1=O [Example 122]
56 | 8 | CC(C)c1c(-c2cnn(S(=O)(=O)c3ccccc3)c2)[nH]c2c(C#N)cnn2c1=O [Example 123]
57 | 11 | CC(C)c1c(-c2cnn(C(=O)c3ccccc3)c2)[nH]c2c(C#N)cnn2c1=O [Example 124]
58 | 8 | CC(C)c1c(-c2cnn(Cc3ccccc3-c3ccccc3)c2)[nH]c2c(C#N)cnn2c1=O [Example 126]
59 | 13 | CC(C)c1c(-c2cnn(CC3CCCCC3)c2)[nH]c2c(C#N)cnn2c1=O [Example 127]
60 | 16 | CC(C)c1c(-c2cnn(Cc3cccnc3)c2)[nH]c2c(C#N)cnn2c1=O [Example 128]
61 | 7.2 | CCc1ccc(-c2[nH]c3c(C#N)cnn3c(=O)c2C(C)C)o1 [Example 132]
62 | 11 | COCCn1cc(-c2[nH]c3c(C#N)cnn3c(=O)c2C(C)C)cn1 [Example 133]
63 | 5.5 | CC(C)c1c(-c2cnn(Cc3cccc4ccccc34)c2)[nH]c2c(C#N)cnn2c1=O [Example 134]
64 | 5.8 | CC(C)c1c(-c2cnn(Cc3ccc(-c4ccccc4)cc3)c2)[nH]c2c(C#N)cnn2c1=O [Example 135]
65 | 15 | CC(C)c1c(-c2ccc(Cl)c(Cl)c2)[nH]c2c(C#N)cnn2c1=O [Example 138]
66 | 13 | COc1ccc(-c2[nH]c3c(C#N)cnn3c(=O)c2C(C)C)cc1Cl [Example 139]
67 | 12 | COc1cc(-c2[nH]c3c(C#N)cnn3c(=O)c2C(C)C)ccc1C [Example 140]
68 | 9.3 | CC(C)c1c(-c2cnn(Cc3cscn3)c2)[nH]c2c(C#N)cnn2c1=O [Example 141]
69 | 12 | CC(C)c1c(-c2ccc3[nH]ncc3c2)[nH]c2c(C#N)cnn2c1=O [Example 142]
70 | 25 | COc1ccc(-c2[nH]c3c(C#N)cnn3c(=O)c2C(C)C)cc1OC [Example 143]
71 | 19 | COc1c(C)cc(-c2[nH]c3c(C#N)cnn3c(=O)c2C(C)C)cc1C [Example 144]

Row | IC50 [nM] | SMILES
72 | 17 | CC(C)c1c(-c2cnn(C3COC3)c2)[nH]c2c(C#N)cnn2c1=O [Example 145]
73 | 6 | CC(C)c1c(-c2cnn(CCN(C)C)c2)[nH]c2c(C#N)cnn2c1=O [Example 149]
74 | 14 | Cc1ccc(-c2[nH]c3c(C#N)cnn3c(=O)c2C(C)C)cc1C#N [Example 150]
75 | 17 | CC(C)c1c(-c2ccc3c(c2)OCO3)[nH]c2c(C#N)cnn2c1=O [Example 151]
76 | 14 | CC(C)c1c(-c2ccc3c(c2)CCO3)[nH]c2c(C#N)cnn2c1=O [Example 152]
77 | 6 | CC(C)c1c(-c2cnn(Cc3cccc(F)c3)c2)[nH]c2c(C#N)cnn2c1=O [Example 154]
78 | 9.8 | CC(C)c1c(-c2cnn(Cc3cccs3)c2)[nH]c2c(C#N)cnn2c1=O [Example 155]
79 | 22 | CC(C)c1c(-c2cnn(CC(F)(F)F)c2)[nH]c2c(C#N)cnn2c1=O [Example 156]
80 | 7 | CC(C)c1c(-c2cnn(Cc3cccc(Cl)c3)c2)[nH]c2c(C#N)cnn2c1=O [Example 157]
81 | 15 | CC(C)Cn1cc(-c2[nH]c3c(C#N)cnn3c(=O)c2C(C)C)cn1 [Example 158]
82 | 35 | CC(C)c1c(-c2cnn(CCC(F)(F)F)c2)[nH]c2c(C#N)cnn2c1=O [Example 159]
83 | 19 | CC(C)c1c(-c2cnn(C(F)F)c2)[nH]c2c(C#N)cnn2c1=O [Example 160]
84 | 13 | CC(C)c1c(-c2cnn(CCC#N)c2)[nH]c2c(C#N)cnn2c1=O [Example 161]
85 | 160 | CCn1cc(-c2c(C(C)C)c(=O)n3ncc(C#N)c3n2C)cn1 [Example 189]
86 | 11 | CC(C)c1c(-c2cc[nH]c2)[nH]c2c(C#N)cnn2c1=O [Example 203]
87 | 23 | CC(C)c1c(-c2ccc(C(N)=O)c(F)c2)[nH]c2c(C#N)cnn2c1=O [Example 205]
88 | 9 | CC(C)c1c(-c2cc(F)cc(C(N)=O)c2)[nH]c2c(C#N)cnn2c1=O [Example 208]
89 | 18 | COc1ccc(-c2[nH]c3c(C#N)cnn3c(=O)c2C(C)C)cc1CO [Example 209]
90 | 12 | CC(C)c1c(-c2ccn(S(C)(=O)=O)c2)[nH]c2c(C#N)cnn2c1=O [Example 210]
91 | 24 | CC(C)c1c(-c2ccn(C)c2)[nH]c2c(C#N)cnn2c1=O [Example 211]

— patent US10035801B2, “Pyrazolo compounds and uses thereof” (CONSTELLATION PHARMACEUTICALS, INC., priority 2013, dated 2018)
